Assay results published in ChEMBL document CHEMBL1201862, “PubChem BioAssay data set” (2004).
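Interpolation was linear, between the two tested concentrations surrounding the appropriate level; five concentrations were tested over 48 hours in 96-well plates. GI50 is the concentration that inhibits growth by half.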 The source made the active and inactive calls. Rule as the data show it: active = GI50 up to about 1.1 µM and inactive = higher.

Experiments:
Assay in all cases: NCI anticancer screen, dose series, 48 h
[1] = tested on: LOX IMVI
[2] = tested on: UACC-62
[3] = tested on: KM-20L2
[4] = tested on: HT-29
[5] = tested on: OVCAR-5
[6] = tested on: TK-10
[7] = tested on: HL-60
[8] = tested on: SW-620
[9] = tested on: SK-MEL-5
[10] = tested on: SK-MEL-2
[11] = tested on: NCI-H23
[12] = tested on: MOLT-4
[13] = tested on: CCRF-CEM
[14] = tested on: NCI-H460
[15] = tested on: SK-MEL-28
[16] = tested on: SNB-75
[17] = tested on: HCT-116
[18] = tested on: A498
[19] = tested on: NCI/ADR-RES
[20] = tested on: T47D

Measured: GI50

C[N+](C)=c1[nH]c2ccccc2[nH]1
inactive: [1] > 100 µM | [2] > 100 µM | [3] > 100 µM | [4] > 100 µM | [5] > 100 µM | [6] > 100 µM | [7] > 100 µM | [8] > 100 µM | [9] > 100 µM | [10] > 100 µM | [11] > 100 µM | [12] > 100 µM | [13] > 100 µM | [14] > 100 µM | [15] > 100 µM | [16] 24.3 µM

CC(=O)OCC1OC(n2cccnc2=O)C(OC(C)=O)C1OC(C)=O (configuration not stated)
inactive: [1] > 100 µM | [2] > 100 µM | [3] > 100 µM | [4] > 100 µM | [5] > 100 µM | [6] > 100 µM | [7] > 100 µM | [8] > 100 µM | [9] > 100 µM | [10] > 100 µM | [12] > 100 µM | [13] > 100 µM | [14] > 100 µM | [17] > 100 µM | [18] > 100 µM | [15] > 100 µM | [16] > 100 µM

CC(=O)OC1(C)C(=O)OC1(C)C(C)=O (configuration not stated)
inactive: [1] > 100 µM | [2] > 100 µM | [3] > 100 µM | [4] > 100 µM | [5] > 100 µM | [6] > 100 µM | [7] > 100 µM | [8] > 100 µM | [9] > 100 µM | [10] > 100 µM | [11] > 100 µM | [12] > 100 µM | [13] > 100 µM | [17] > 100 µM | [18] > 100 µM | [15] > 100 µM | [16] > 100 µM

Cc1cccc(O)c(=O)c1
inactive: [1] 7.03 µM | [2] 11.4 µM | [3] 22.8 µM | [4] 19 µM | [5] 47.6 µM | [6] 29.2 µM | [7] 3.44 µM | [8] 16.4 µM | [9] 28.1 µM | [12] 6.38 µM | [13] 3.48 µM | [14] 31.7 µM | [17] 11.9 µM | [18] 54 µM | [15] 49.4 µM | [16] 83.6 µM

COc1cccc(C(=O)C2C(=O)N(C)CCc3ccccc32)c1OC (configuration not stated)
inactive: [1] > 100 µM | [2] > 100 µM | [3] > 100 µM | [4] > 100 µM | [6] > 100 µM | [7] > 100 µM | [8] > 100 µM | [9] > 100 µM | [10] > 100 µM | [11] > 100 µM | [12] > 100 µM | [13] > 100 µM | [14] > 100 µM | [17] > 100 µM | [18] > 100 µM | [15] > 100 µM | [16] > 100 µM

Cc1ccc2nc3c(Cl)cc(=O)cc-3sc2c1
inactive: [2] 15.9 µM | [3] > 10 µM | [4] 29.4 µM | [5] > 10 µM | [6] 28.1 µM | [7] 5.77 µM | [8] 21.6 µM | [9] 17.1 µM | [10] > 10 µM | [11] > 10 µM | [12] 10.9 µM | [13] 1.96 µM | [14] 29.4 µM | [17] 17.9 µM | [15] 35 µM | [16] 21.5 µM

COC(=O)C1=C(OC(=O)/C(=C/c2ccc(Cl)cc2)c2ccccc2)C(C(=O)OC)[C@@]2(O)[C@@H](C(=O)OC)[C@H](C)C[C@@H]1[C@@H]2C(=O)OC (some centres not stated)
inactive: [19] 37.4 µM | [1] > 100 µM | [2] 83.6 µM | [4] > 100 µM | [5] > 100 µM | [6] > 100 µM | [7] > 100 µM | [8] > 100 µM | [9] > 100 µM | [10] > 100 µM | [11] 9.73 µM | [12] > 100 µM | [13] > 100 µM | [14] 61.4 µM | [20] > 100 µM | [17] > 100 µM | [18] 5.55 µM | [15] > 100 µM | [16] 29.6 µM

O=C1C(Cl)C2(CC(/C=C/c3ccccc3O)=NN2c2cccc(S(=O)(=O)O)c2)N1c1nc2ccccc2s1 (configuration not stated)
inactive: [19] 36.1 µM | [1] 9.62 µM | [2] 15.2 µM | [4] 18.6 µM | [5] 22.3 µM | [6] 12.3 µM | [7] 3.54 µM | [8] 17.4 µM | [9] 12.1 µM | [10] 16.8 µM | [11] 15.6 µM | [12] 17.1 µM | [13] 7.24 µM | [14] 15.1 µM | [20] 17.4 µM | [17] 15.4 µM | [18] 20.9 µM | [15] 24.2 µM | [16] 38.8 µM
